# In paper PMC5306082, “Physiologically based kinetic modeling of the bioactivation of myristicin” (Archives of Toxicology, 2016):
# Experiments:
# [1] = Sulfonation of 1′-hydroxymyristicin, male rat liver S9; assay type: in vitro ADME; settings: S9 protein yield 143 mg/g liver
# Description: The formation of 1′-sulfoxymyristicin was determined using incubations containing male rat liver Sprague–Dawley or pooled gender human liver S9 proteins, PAPS as a cofactor, and GSH, which acts as a scavenger of the reactive carbocation formed due to the unstable nature of the 1′-sulfoxy metabolite in an aqueous environment (van den Berg et al. [2012]; Martati et al. [2011]; Al-Subeihi et al. [2011]). Incubation mixtures containing (final concentrations) 10 mM of GSH, 0.2 mM of PAPS, and 3 mg/ml of S9 proteins in 0.1 M potassium phosphate (pH 8.2) were pre-incubated for 1 min at 37 °C. After the pre-incubation, 1′-hydroxymyristicin dissolved in DMSO was added in final concentrations ranging between 10 and 6000 μM while keeping the final content of DMSO at 1 % (v/v). The reaction was terminated after 360 min of incubation by adding 25 μl (0.25 times the incubation volume) of ice-cold ACN. The formation of the GSH conjugate of 1′-sulfoxymyristicin was linear with time and S9 protein concentrations under the experimental conditions used. Blank incubations were performed in the absence of PAPS. Incubations were performed in triplicate. All samples were centrifuged for 5 min at 16,000×g, and the supernatant was stored at −20 °C until ultra-performance liquid chromatography (UPLC) analysis.
# Quantification of 1′-sulfoxymyristicin was done using UPLC analysis as described for the estimation of 1′-sulfoxysafrole (Martati et al. [2011]). […] The gradient for analysis of the metabolite consisted of a mixture of ACN and ultrapure water containing 0.1 % (v/v) TFA. The flow rate was 0.6 ml/min, starting at 0 % ACN and increasing the percentage of ACN to 20 % over 0.2 min, followed by an increase to 30 % ACN over 4.3 min, then increasing to 100 % over 0.3 min, and keeping it at 100 % for 0.2 min, and finally decreasing to 0 % over 0.2 min and keeping it at 0 % for 0.8 min. Separation and purification of the GSH adduct of 1′-sulfoxymyristicin was performed by collecting the peak of the metabolite from the UPLC column. […]
# [2] = Microsomal conversion of myristicin, male rat liver microsomes; assay type: in vitro ADME
# Description: First, it was determined which organs are involved in the biotransformation of myristicin in rat and human. For this purpose, liver, kidney, lung, and small intestine microsomes from male Sprague–Dawley rat and pooled gender human were used. Incubations were performed by adding myristicin to incubation mixtures containing 1 mg/mL of the microsomal protein preparations and 3 mM NADPH in 0.2 M Tris–HCl (pH 7.4). After 1 min of pre-incubation at 37 °C, myristicin (final concentration, 1000 μM) was added from a 100 times concentrated stock solution in DMSO so that the final DMSO content was 1 % (v/v). Incubations were carried out for 30 min after which the reactions were terminated by adding 25 µl (0.25 times the incubation volume) of ice-cold ACN. Samples were centrifuged for 5 min at 13,000×g, and the supernatant was stored at −20 °C until UPLC analysis. As metabolism of myristicin was observed only in incubations with liver microsomes for male rats and pooled gender human, the determination of kinetic constants for the formation of microsomal metabolites was performed only for the liver fractions. Incubations to determine kinetic constants were performed following the conditions described above using final concentrations of myristicin from 25 to 1000 μM for rat and human liver. In all incubations, the final concentration of DMSO, in which myristicin was dissolved, was kept at 1 % (v/v). The formation of different microsomal metabolites was linear with time and microsomal protein concentration under the conditions described. Blank incubations were performed in the absence of the cofactor NADPH. All incubations were performed in triplicate.
# Secondary metabolism of the relevant 1′-hydroxy metabolite of myristicin was taken into account by determining the kinetic constants for its conversion in (a) glucuronidation, (b) sulfation, and (c) oxidation, again under conditions that allowed adequate definition of kinetic constants and with <10 % substrate conversion. Incubation samples were subjected to UPLC analysis that was performed as described previously (Punt et al. [2008]). Identification was achieved by comparing the UV spectra of the formed metabolites to the spectra of the synthesized 1′-hydroxymyristicin and 1′-oxomyristicin reference standards. Quantification of all formed metabolites was done by comparing the peak areas to those of calibration curves of the corresponding reference compounds, determined using UPLC with photodiode array detection (UPLC-PDA). The UPLC system was composed of a Waters (Waters, Milford, MA) Acquity solvent manager, sample manager, and photodiode array detector, equipped with Water Acquity UPLC BEH C18 column.
# The gradient for analysis of microsomal metabolites was performed with 100 % ACN and ultrapure water containing 0.1 % (v/v) TFA. The flow rate was 0.6 ml/min. The gradient started at 10 % ACN, increased to 50 % ACN over 4 min, increased to 80 % over 0.5 min, followed by decrease to 10 % ACN over 0.5 min, and finally kept at 10 % for 1 min.
structure (smiles),measurement,setting,value
"C=CC(O)c1cc(OC)c2c(c1)OCO2 (centres unmarked) [1′-Hydroxymyristicin, 1′-hydroxymyristicin]",k Scaled,[1],0.15 ml/hr/g tissue
same,Vmax,"[2]; formation of the metabolite from myristicin, NADPH, mean of three ± SD",0.86 ± 0.18 nmol min^−1 (mg microsomal or S9 protein)^−1
same,In vitro catalytic efficiency,"[2]; formation of the metabolite from myristicin, Vmax/Km × 1000",8.431 μl min^−1 (mg microsomal or S9 protein)^−1
same,"Scaled Vmax, in vivo","[2]; from myristicin, microsomal protein yield 35 mg/g liver",1.806 μmol/h/g tissue
same,In vivo catalytic efficiency,"[2]; from myristicin, scaled Vmax/Km",0.0177 ml/h/g tissue
same,"Km for formation from myristicin, fold lower in rat liver than in human liver incubations",[2]; rat vs human,twofold lower
same,"Vmax for formation from myristicin, fold higher in rat liver than in human liver incubations",[2]; rat vs human,fivefold higher
same,"catalytic efficiency for formation from myristicin, fold higher in male rat liver than in human liver","[2]; scaled catalytic efficiency, rat vs human",13 fold
